Assay results from patent publication US11739073B2, “Aryl-n-aryl derivatives for treating a RNA virus infection” (ABIVAX, priority 2018, dated 2023).
pEC50, pIC50: −log10 of the molar value.

Experiments:
[1] = system: Chikungunya Virus (CHIKV); assay: Inhibition of Chikungunya virus (CHIKV) production in infected HEK293T cell line (GFP-modified virus, fluorescence); assay type: cell-based, CHIKV strain of La Réunion outbreak (LR2006-OPY1); conditions: HEK-293T, infected HEK293T cells; for inhibition at 1 µM: compounds at 1 μM, MOI 0.1, 22 h, values above 100 lowered to 100, read-out: % CHIKV Inhibition Mean (n = 2); for pIC50: read-out: IC50 (CHIKV, second round of experiments)
Experimental: The ability of the compounds to inhibit viral replication was assessed with an experiment in which infected cells were treated by compounds of formula (I) at 1 μM. As a positive control for inhibition of Chikungunya, Ribavirin was used. Toxicity of the compounds was assessed in parallel.
Human embryonic kidney cells 293T (HEK293T, CRL-11268) were maintained in Dulbecco's modified Eagle's Medium (DMEM, 31966-021, Thermo Fisher Scientific) supplemented with 10% of fetal bovine serum (FBS), penicillin and streptomycin. After removal of the medium, cells were washed with Ca^2+ and Mg^2+-free salt solution to remove all traces of serum. After aspiration of wash solution, cells were dissociated with 0.25% Trypsin-EDTA solution and incubated 30 s at least in 37° C. incubator. Concentration of cell suspension was determined by an automatic cell counter (EVE, NanoEntek) and, if needed, adjusted to 0.33×10^6 cells/mL with DMEM medium supplemented with 10% FBS.
100 μL of the cell suspension were dispatched in a ViewPlate-96 Black (6005182, PerkinElmer) and in a transparent 96-well cell culture plate (655180, Greiner bio-one). After an incubation for 24 h at 37° C. under 5% of CO2, compounds were added at the proper concentration.
An intermediate dilution was prepared with DMSO (D8418, Sigma) at 2 mM in a 96-well V-bottom microplate from the stock solution:
Mix 1 μL of the 50 mM stock library in 25 μL of DMSO.
Mix 2 μL of the 25 mM stock library in 25 μL of DMSO.
An intermediate dilution was prepared with DMSO (D8418, Sigma) at 25 mM in a 96-well V-bottom microplate from the stock solution:
Mix 2 μL of the 50 mM stock library in 2 μL of DMSO.
Perform serial dilution in 2 μL of DMSO 13 times to reach 0.0015 mM. Proceed as follows in table III:
For both screen and determination of IC50, 1 μL of each solution was added in a 1 mL Masterblock 96 wells (Greiner bio-one, 780261) containing 1 mL of DMEM medium. As a positive control, 5 μL of a 80 mM Ribavirin solution (R9644, Sigma) is added to 1 mL of DMEM. On the other hand, DMSO is used as a negative control.
[…]. Vector Borne Zoonotic Dis. 2006; 6(4)). This modified virus was used to infect cells at MOI 0.1. […]. Medium was removed after 22 h at 37° C. under 5% of CO2 and cells were washed as described above. 60 μL of RIPA buffer (50 mM Tris-HCl pH8, 100 mM NaCl, 1 mM MgCl2, 1% Triton X-100) was added to cells and incubated for at least 20 min before reading fluorescence signal. Pierce 660 nm Protein Assay Reagent (22660, Thermo scientific) was used to normalize fluorescence signal by protein quantity.
CellTiter 96® AQueous One Solution Cell Proliferation Assay (MTS) (G3581, Promega) was used to check the toxicity of the compounds. We added 20 μL of MTS solution and read absorbance at 492 nm one hour later.
Results • A first round of experiments has been performed wherein the results are expressed as inhibition percentage, which is calculated as follows, through the following steps:
1. Fluorescence intensity (FI)/Absorbance 660 nm (A660)=A
This ratio allows considering the infection (GFP virus) to the protein amount.
2. A′=A—background noise of non-infected plate,
3. B=Fluorescence intensity (FI)/Absorbance 660 nm (A660) of infected but non treated plates,
4. C=A′/B, which is then converted as the percentage of infection after treatment, compared to non-treated sample, and subsequently as the […]. For instance, a value of 100 in Table IV here below means that, after treatment, the signal attributed to GFP fluorescence is abolished, which is correlated to the absence of infection.
This value corresponds to the inhibition's percentage.
The following Table IV encompasses said C′ value for some compounds, as calculated above with a mean of 2 experiments, and corresponding standard deviation.
Some values were originally above 100. In these cases, the value has been lowered to 100. This means that some molecules also have an impact on the viability of the cells. […]

[2] = system: DENV-2; assay: DENV-2 inhibition in A549 cells using Viral ToxGlo assay (cytopathic effect); assay type: cell-based, DENV-2 strain 16681; conditions: Dengue virus, DENV2, A549, 120 h, read-out: % DENV-2 Inhibition Mean (n = 3)
Experimental: Protocol for Screening Antiviral Compounds for DENV-2 Inhibition and Cytotoxicity Using Viral ToxGlo Assay
A549 cells were maintained in Dulbecco's Modified Eagle Medium (DMEM) supplemented with 10% fetal bovine serum, 100 U/ml penicillin and 100 μg/ml streptomycin. For the purposes of the screening assay they were grown to 90% confluency, trypsinized and recovered. The trypsin was neutralised with cell culture media and cells were centrifuged at 150×g for 5 minutes before discarding the supernatant and resuspending cell pellet in assay media (DMEM supplemented with 2% fetal bovine serum and 100 U/ml penicillin and 100 μg/ml streptomycin). The cells were seeded into 96-well white clear-bottomed cell culture plates at a density of 1.0×10^4 cells/well in 50 μl. For the media/background control column assay media only was added. Cell plates were placed in a humid chamber and incubated overnight at 37° C./5% CO2. After overnight incubation cells were checked for confluency and healthy appearance.
Test compounds were prepared at a final concentration of 10 μM in a maximum DMSO concentration of 1% (final assay concentration maximal 0.1% DMSO) and added to the cell plates in volumes of 10 μl. For cell control and virus control wells the test article solvent only was added. As a positive inhibition control, 7-Deaza-2′-C-methyladenosine was added at 100 μM in 3 wells. Virus (DENV-2 strain 16681) or assay media for cytotoxicity test wells and media/cell control wells was added immediately after test articles at an MOI of 0.5, 40 for 96 well plates respectively. Virus suspension was prepared by thawing DENV-2 frozen stocks and diluting to the required concentration of plaque forming units in assay media.
Cell plates were further incubated inside a humid chamber for 5 days p.i at 37° C./5% CO2. After the incubation period cells were observed under the microscope to check for characteristic cytopathic effect in virus control wells and healthy cells in the cell control wells. After plates were adjusted to room temperature 20 μl Viral ToxGlo (Promega) was added to each well of the 96-well cell plates. Plates were incubated at room temperature for 5 minutes before measuring the luminescence on a spectrophotometer (Envision, PerkinElmer).
DENV-2 inhibition was calculated as percentage of cytopathic effect inhibition relative to the virus control and cytotoxicity as percentage of cell survival relative to cell control wells.

[3] = system: RSV; assay: RSV inhibition in HEp-2 cells using Viral ToxGlo assay (cytopathic effect); assay type: cell-based, RSV A2; conditions: human respiratory syncytial virus, HEp-2, 72 h
Experimental: Protocol for Screening Antiviral Compounds for RSV Inhibition and Cytotoxicity Using Viral ToxGlo Assay
HEp-2 cells were maintained in Eagle's minimum essential medium (EMEM) with Earle's BSS adjusted to contain 2 mM L-glutamine, 10% fetal bovine serum, 100 U/ml penicillin and 100 μg/ml streptomycin. For the purposes of the screening assay they were grown to 90% confluency, trypsinized and recovered. The trypsin was neutralised with cell culture media and cells were centrifuged at 150×g for 5 minutes before discarding the supernatant and resuspending cell pellet in assay media (EMEM with Earle's BSS adjusted to contain 2 mM L-glutamine, 2% fetal bovine serum and 100 U/ml penicillin and 100 μg/ml streptomycin). The cells were seeded into white clear-bottomed cell culture plates at a density of 1.5×10^4 cells/well in 50 μl and 4×10^3 cells/well in 25 μl for 96 well plates and 384 well plates respectively. For the media/background control column assay media only was added. Cell plates were placed in a humid chamber and incubated overnight at 37° C./5% CO2. After overnight incubation cells were checked for confluency and healthy appearance.
Test articles were made up at 10× test concentration in a maximum DMSO concentration of 10% (final assay concentration maximal 1% DMSO) and added to the cell plates in volumes of 10 μl for 96 well plates and 5 μl for 384 well plates. For cell control and virus control wells the test article solvent only was added. Virus or assay media for cytotoxicity test wells and media/cell control wells was added immediately after test articles at an MOI of 0.5, 40 or 20 μl for 96 and 384 well plates respectively. Virus suspension was prepared by thawing RSV A2 frozen stocks and diluting to the required concentration of plaque forming units in assay media on ice.
Cell plates were further incubated inside a humid chamber for 72 h p.i at 37° C./5% CO2. After the incubation period cells were observed under the microscope to check for characteristic cytopathic effect in virus control wells and healthy cells in the cell control wells. After plates were adjusted to room temperature 20/40 μl Viral ToxGlo (Promega) was added to each well of the 384/96 well cell plates. Plates were incubated at room temperature, protected from light on a plate rocker for 20 minutes before measuring the luminescence on a spectrophotometer (Biotek Synergy HTX).
RSV inhibition was calculated as percentage of cytopathic effect inhibition relative to the virus control and cytotoxicity as percentage of cell survival relative to cell control wells. This allowed EC50 values to be calculated for each test article where a virus inhibition or cytotoxic dose response was identified.

Row | Compound | inhibition at 1 µM [1] [%] | pIC50 [1] | inhibition at 10 µM [2] [%] | pEC50 [3]
1 | CC(C)CCNC(=O)c1cccc(Nc2ccc(/C=C/c3ccccn3)cc2)c1 [Compound 1, (E)-N-isopentyl-3-((4-(2-(pyridin-2-yl)vinyl)phenyl)amino)benzamide] | 98 | – | – | –
2 | CC(C)CCNC(=O)c1ccc(Nc2ccc(/C=C/c3ccccn3)cc2)cc1 [Compound 2, (E)-N-isopentyl-4-((4-(2-(pyridin-2-yl)vinyl)phenyl)amino)benzamide] | 74 | – | – | –
3 | O=C(NCCC1CCCCC1)c1cccc(Nc2ccc(/C=C/c3ccccn3)cc2)c1 [Compound 4, (E)-N-(2-cyclohexylethyl)-3-((4-(2-(pyridin-2-yl)vinyl)phenyl)amino)benzamide] | 99 | – | – | –
4 | O=C(NCCC1CCCC1)c1cccc(Nc2ccc(/C=C/c3ccccn3)cc2)c1 [Compound 6, (E)-N-(2-cyclopentylethyl)-3-((4-(2-(pyridin-2-yl)vinyl)phenyl)amino)benzamide] | 98 | 6.30 to 6.70 | – | –
5 | O=C(NCCC1CCC1)c1cccc(Nc2ccc(/C=C/c3ccccn3)cc2)c1 [Compound 9, (E)-N-(2-cyclobutylethyl)-3-((4-(2-(pyridin-2-yl)vinyl)phenyl)amino)benzamide] | 98 | – | – | –
6 | Cc1cc(/C=C/c2ccccn2)ccc1Nc1cccc(C(=O)NCCC2CCCC2)c1 [Compound 12, (E)-N-(2-cyclopentylethyl)-3-((2-methyl-4-(2-(pyridin-2-yl)vinyl)phenyl)amino)benzamide] | – | 6.70 to 9.00 | 96 | 5.60 to 6.43
7 | Cc1cc(/C=C/c2ccccn2)ccc1Nc1cccc(C(=O)NCCC(C)C)c1 [Compound 13, (E)-N-isopentyl-3-((2-methyl-4-(2-(pyridin-2-yl)vinyl)phenyl)amino)benzamide] | – | 6.70 to 9.00 | 86 | 5.60 to 6.43
8 | CC(C)CCNC(=O)c1cccc(Nc2ccc(C(=O)Nc3ccccn3)cc2)c1 [Compound 14, N-isopentyl-3-((4-(pyridin-2-ylcarbamoyl)phenyl)amino)benzamide] | 93 | 6.30 to 6.70 | – | –
9 | O=C(NCCC1CCCC1)c1cccc(Nc2ccc(C(=O)Nc3ccccn3)cc2)c1 [Compound 15, N-(2-cyclopentylethyl)-3-((4-(pyridin-2-ylcarbamoyl)phenyl)amino)benzamide] | 98 | 6.30 to 6.70 | 107 | –
10 | O=C(NCCC1CCCCC1)c1cccc(Nc2ccc(C(=O)Nc3ccccn3)cc2)c1 [Compound 16, N-(2-cyclohexylethyl)-3-((4-(pyridin-2-ylcarbamoyl)phenyl)amino)benzamide] | 100 | 6.30 to 6.70 | – | 5.93
11 | CC(C)CCNC(=O)c1cccc(Nc2ccc(NC(=O)c3ccccn3)cc2)c1 [Compound 32, N-(4-((3-(isopentylcarbamoyl)phenyl)amino)phenyl)picolinamide] | 99 | 6.30 to 6.70 | – | –
12 | O=C(NCCC1CCCC1)c1cccc(Nc2ccc(NC(=O)c3ccccn3)cc2)c1 [Compound 35, N-(4-((3-((2-cyclopentylethyl)carbamoyl)phenyl)amino)phenyl)picolinamide] | 100 | 6.30 to 6.70 | 66 | –
13 | O=C(Nc1ccccc1)c1ccc(Nc2cccc(OCCCC3CCCCC3)c2)c(C2CC2)c1 [Compound 115, 4-{[3-(3-cyclohexylpropoxy)phenyl]amino}-3-cyclopropyl-N-phenylbenzamide] | – | – | – | 6.64
